Measurements published in ChEMBL document CHEMBL1153221, “The identification of structurally novel, selective, orally bioavailable positive modulators of mGluR2” (Bioorg Med Chem Lett, 2010).
In brackets after ≈: the same amount, converted by molar mass. Activity calls are given as the source filed them. No cut-off for these calls is given here.

Legend:
[1] = biological target: T1, Metabotropic glutamate receptor 2 (Homo sapiens, UniProt Q14416); experiment: Positive modulation of human mGluR2 expressed in CHO cells co-expressing Ga16 G-protein assessed as glutamate-induced response by FLIPR assay; format: cell-based
Target sequence in this assay (Q14416 whole entry): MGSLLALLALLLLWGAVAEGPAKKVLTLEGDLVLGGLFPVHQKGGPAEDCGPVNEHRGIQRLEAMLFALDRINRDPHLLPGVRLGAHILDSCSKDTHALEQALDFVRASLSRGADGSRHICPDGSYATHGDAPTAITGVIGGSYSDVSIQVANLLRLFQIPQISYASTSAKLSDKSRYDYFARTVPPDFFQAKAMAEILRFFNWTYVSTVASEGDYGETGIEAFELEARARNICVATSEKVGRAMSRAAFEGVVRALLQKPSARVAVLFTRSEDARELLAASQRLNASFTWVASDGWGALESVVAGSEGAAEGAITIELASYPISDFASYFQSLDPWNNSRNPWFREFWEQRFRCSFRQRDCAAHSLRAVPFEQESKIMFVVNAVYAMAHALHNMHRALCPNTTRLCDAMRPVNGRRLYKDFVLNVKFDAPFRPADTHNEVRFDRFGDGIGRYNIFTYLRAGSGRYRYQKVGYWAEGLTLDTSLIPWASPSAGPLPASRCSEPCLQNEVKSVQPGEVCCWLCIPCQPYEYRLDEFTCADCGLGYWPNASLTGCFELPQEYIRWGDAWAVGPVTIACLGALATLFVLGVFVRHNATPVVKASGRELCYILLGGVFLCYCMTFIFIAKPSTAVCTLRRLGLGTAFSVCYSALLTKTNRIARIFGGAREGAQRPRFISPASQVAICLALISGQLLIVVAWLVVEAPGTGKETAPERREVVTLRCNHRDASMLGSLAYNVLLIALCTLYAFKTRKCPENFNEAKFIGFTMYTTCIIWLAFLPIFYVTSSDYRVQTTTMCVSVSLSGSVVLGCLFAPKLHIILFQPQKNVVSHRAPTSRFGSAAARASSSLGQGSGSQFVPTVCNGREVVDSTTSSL

[2] = biological target: T1, Metabotropic glutamate receptor 2; experiment: Positive modulation of human mGluR2 expressed in CHO cells co-expressing Ga16 G-protein assessed as glutamate-induced response by FLIPR assay relative to glutamate; format: cell-based
Target sequence in this assay (Q14416 19-872 limits assumed): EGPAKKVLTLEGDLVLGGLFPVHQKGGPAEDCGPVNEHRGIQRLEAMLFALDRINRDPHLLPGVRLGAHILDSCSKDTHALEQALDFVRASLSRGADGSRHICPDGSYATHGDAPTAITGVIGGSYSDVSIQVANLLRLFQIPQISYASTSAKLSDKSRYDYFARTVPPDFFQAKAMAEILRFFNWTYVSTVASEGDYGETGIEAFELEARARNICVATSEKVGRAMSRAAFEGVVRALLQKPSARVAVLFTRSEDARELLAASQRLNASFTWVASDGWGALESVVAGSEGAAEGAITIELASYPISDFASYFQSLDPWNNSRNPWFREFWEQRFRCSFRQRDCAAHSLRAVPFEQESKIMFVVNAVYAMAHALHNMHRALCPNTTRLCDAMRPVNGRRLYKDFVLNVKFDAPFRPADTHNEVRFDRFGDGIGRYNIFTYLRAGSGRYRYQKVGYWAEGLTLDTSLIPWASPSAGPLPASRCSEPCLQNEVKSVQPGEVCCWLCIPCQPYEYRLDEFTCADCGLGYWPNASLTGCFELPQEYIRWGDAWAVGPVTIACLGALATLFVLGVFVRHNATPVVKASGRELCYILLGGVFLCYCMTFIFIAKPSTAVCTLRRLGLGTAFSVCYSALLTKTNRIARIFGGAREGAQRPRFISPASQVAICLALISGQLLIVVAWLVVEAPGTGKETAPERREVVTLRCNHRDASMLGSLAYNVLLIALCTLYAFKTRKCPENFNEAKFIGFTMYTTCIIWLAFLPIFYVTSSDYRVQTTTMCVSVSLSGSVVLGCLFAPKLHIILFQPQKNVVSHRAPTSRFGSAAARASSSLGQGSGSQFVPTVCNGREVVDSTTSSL

[3] = biological target: T2, D(4) dopamine receptor (Homo sapiens, UniProt P21917); experiment: Antagonist activity at human D4 receptor expressed in HEK293 cells co-expressing Gqo5 G-protein by FLIPR assay; format: functional, cell-based
T2 sequence (P21917 whole entry): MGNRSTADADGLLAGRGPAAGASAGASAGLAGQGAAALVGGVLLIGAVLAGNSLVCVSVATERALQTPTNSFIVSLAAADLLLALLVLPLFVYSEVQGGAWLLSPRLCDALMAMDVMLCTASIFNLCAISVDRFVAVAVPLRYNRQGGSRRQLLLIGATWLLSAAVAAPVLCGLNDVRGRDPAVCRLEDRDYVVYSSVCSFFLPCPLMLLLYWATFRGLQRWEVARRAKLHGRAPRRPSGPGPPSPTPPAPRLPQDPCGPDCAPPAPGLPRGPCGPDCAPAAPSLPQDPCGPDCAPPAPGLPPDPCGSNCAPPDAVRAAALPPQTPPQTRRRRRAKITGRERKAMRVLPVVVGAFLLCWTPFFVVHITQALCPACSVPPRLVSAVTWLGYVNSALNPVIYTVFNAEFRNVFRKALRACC

[4] = biological target: T1, Metabotropic glutamate receptor 2; experiment: Agonist activity at human mGluR2 expressed in CHO cells co-expressing Ga16 G-protein assessed as glutamate-induced response by FLIPR assay; format: functional, cell-based
Target sequence in this assay (Q14416 whole entry): as the sequence (Q14416 whole entry) above

[5] = biological target: D(3) dopamine receptor (Homo sapiens, UniProt P35462); experiment: Antagonist activity at human D3 receptor expressed in CHO cells co-expressing G0 by [35S]GTPgammaS binding assay; format: functional, cell-based
Sequence of D(3) dopamine receptor (P35462 whole entry): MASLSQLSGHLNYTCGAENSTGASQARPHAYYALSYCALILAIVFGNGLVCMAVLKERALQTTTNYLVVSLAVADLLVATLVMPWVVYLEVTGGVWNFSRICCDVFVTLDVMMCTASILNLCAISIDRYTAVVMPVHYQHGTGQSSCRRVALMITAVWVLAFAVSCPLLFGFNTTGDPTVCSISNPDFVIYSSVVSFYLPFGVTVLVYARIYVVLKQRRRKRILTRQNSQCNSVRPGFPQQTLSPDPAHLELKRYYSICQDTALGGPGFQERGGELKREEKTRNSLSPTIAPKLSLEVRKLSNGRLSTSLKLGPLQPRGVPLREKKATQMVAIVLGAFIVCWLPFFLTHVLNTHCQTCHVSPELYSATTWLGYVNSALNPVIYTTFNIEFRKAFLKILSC

[6] = biological target: D(2) dopamine receptor (Homo sapiens, UniProt P14416); experiment: Antagonist activity at human D2 receptor expressed in CHO cells co-expressing G0 by [35S]GTPgammaS binding assay; format: functional, cell-based
Sequence of D(2) dopamine receptor (P14416 whole entry): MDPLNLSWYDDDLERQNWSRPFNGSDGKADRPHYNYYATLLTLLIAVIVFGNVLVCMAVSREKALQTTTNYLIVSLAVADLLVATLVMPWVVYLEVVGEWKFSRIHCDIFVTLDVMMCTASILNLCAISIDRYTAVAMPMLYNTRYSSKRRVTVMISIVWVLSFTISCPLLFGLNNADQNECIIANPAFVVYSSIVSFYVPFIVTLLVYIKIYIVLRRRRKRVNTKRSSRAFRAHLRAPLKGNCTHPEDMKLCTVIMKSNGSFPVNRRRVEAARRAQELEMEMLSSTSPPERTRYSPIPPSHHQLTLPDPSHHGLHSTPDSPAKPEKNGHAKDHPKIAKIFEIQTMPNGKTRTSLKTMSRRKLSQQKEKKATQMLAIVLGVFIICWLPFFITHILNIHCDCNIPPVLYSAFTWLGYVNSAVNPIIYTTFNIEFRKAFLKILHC

[7] = biological target: T3, Metabotropic glutamate receptor 5 (Homo sapiens, UniProt P41594); experiment: Agonist activity at mGluR5; format: functional
[8] = biological target: Metabotropic glutamate receptor 4 (Homo sapiens) (UniProt Q14833); experiment: Positive modulation of mGluR4
Sequence of Metabotropic glutamate receptor 4 (Homo sapiens) (Q14833 whole entry): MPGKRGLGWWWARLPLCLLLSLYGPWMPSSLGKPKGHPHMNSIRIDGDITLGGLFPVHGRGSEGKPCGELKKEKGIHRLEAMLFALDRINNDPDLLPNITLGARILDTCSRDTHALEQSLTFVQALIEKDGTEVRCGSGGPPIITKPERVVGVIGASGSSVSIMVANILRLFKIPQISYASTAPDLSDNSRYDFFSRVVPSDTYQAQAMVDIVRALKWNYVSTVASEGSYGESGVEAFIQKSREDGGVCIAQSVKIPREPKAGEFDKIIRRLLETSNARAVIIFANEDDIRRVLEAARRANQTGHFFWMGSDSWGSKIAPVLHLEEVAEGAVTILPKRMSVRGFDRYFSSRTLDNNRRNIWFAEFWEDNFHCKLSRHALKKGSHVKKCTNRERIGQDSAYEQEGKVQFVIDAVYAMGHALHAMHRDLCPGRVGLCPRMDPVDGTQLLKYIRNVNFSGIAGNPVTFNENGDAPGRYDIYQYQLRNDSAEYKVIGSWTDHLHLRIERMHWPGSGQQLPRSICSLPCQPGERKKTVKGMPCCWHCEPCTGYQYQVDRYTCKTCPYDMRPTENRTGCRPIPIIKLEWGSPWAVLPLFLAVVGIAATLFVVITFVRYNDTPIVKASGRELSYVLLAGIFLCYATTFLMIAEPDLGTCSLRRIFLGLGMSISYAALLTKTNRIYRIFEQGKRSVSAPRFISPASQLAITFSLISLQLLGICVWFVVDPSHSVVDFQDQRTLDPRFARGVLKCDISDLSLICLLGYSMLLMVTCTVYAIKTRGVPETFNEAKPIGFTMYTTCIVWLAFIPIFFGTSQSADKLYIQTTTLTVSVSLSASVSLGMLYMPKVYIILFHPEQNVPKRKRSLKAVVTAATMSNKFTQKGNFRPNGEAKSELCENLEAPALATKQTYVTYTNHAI

[9] = biological target: Metabotropic glutamate receptor 4 (Homo sapiens) (UniProt Q14833); experiment: Antagonist activity at mGluR4; format: functional
[10] = biological target: Metabotropic glutamate receptor 4 (Homo sapiens) (UniProt Q14833); experiment: Agonist activity at mGluR4; format: functional
[11] = biological target: T4, Metabotropic glutamate receptor 1 (Homo sapiens, UniProt Q13255); experiment: Positive modulation of mGluR1
Target sequence in this assay (Q13255 19-1194 limits assumed): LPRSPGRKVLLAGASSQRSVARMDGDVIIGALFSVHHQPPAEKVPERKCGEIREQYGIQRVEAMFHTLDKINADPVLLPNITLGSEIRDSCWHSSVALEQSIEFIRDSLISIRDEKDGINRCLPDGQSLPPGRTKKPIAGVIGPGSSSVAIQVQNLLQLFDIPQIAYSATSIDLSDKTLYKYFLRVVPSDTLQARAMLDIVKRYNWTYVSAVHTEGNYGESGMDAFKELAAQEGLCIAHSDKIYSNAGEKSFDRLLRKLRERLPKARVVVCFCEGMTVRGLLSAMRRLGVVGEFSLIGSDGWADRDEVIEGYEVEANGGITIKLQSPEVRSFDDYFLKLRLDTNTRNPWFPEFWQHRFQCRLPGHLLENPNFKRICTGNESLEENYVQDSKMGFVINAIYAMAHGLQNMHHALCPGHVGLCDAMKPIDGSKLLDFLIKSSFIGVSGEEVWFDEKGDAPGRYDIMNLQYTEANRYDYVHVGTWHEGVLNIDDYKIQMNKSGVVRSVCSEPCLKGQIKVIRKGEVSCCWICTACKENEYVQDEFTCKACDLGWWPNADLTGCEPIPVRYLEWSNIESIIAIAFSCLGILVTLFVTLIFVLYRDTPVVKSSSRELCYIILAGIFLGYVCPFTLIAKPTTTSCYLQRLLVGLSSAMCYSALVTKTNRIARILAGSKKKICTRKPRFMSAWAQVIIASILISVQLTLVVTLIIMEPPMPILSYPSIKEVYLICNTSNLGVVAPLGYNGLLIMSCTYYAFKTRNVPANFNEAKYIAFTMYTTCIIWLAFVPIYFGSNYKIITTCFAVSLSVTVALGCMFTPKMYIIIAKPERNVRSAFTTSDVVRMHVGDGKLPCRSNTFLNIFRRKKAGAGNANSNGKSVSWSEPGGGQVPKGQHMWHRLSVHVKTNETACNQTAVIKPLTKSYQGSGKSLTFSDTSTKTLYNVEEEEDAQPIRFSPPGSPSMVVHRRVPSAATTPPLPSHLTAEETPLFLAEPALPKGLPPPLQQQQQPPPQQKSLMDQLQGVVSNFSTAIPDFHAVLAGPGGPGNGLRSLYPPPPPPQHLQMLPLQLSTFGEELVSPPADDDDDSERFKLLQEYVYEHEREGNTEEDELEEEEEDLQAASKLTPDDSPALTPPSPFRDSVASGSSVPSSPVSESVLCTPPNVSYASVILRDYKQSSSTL

[12] = biological target: T3, Metabotropic glutamate receptor 5; experiment: Antagonist activity at mGluR5; format: functional
[13] = biological target: T4, Metabotropic glutamate receptor 1; experiment: Agonist activity at mGluR1; format: functional
[14] = biological target: T4, Metabotropic glutamate receptor 1; experiment: Antagonist activity at mGluR1; format: functional
[15] = biological target: T3, Metabotropic glutamate receptor 5; experiment: Positive modulation of mGluR5
[16] = Solubility of the compound; format: physicochemical
[17] = Inhibition of field excitatory postsynaptic potential in Wistar rat medial perforant path dentate gyrus after 20 mins by electrophysiological assay in presence of 10 uM GSK1331268
[18] = Inhibition of field excitatory postsynaptic potential in Wistar rat medial perforant path dentate gyrus after 20 mins by electrophysiological assay; format: functional, tissue-based

Cn1c(CN2CCN(c3ccc(Cl)cc3F)CC2)nc2ccccc21
EC50 [1]: 126 nM
Emax [2]: 69%
Ki [3]: 251 nM
EC50 [4]: 2510 nM

Cn1c(CN2CCC(c3ncc(C(F)(F)F)cc3Cl)CC2)nc2ccccc21
EC50 [1]: 39.8 nM
Emax [2]: 70%
Ki [3]: 2510 nM
EC50 [4]: 631 nM
Ki [5]: 1580 nM
Ki [6]: 794 nM

Cn1c(CN2CCC(c3ccccc3C(F)(F)F)CC2)nc2ccccc21
EC50 [1]: 316 nM
Emax [2]: 94%
EC50 [4]: 6310 nM
Ki [5]: 501 nM
Ki [6]: > 3160 nM

Cn1c(CN2CCC(c3nc4ccccc4s3)CC2)nc2ccccc21
EC50 [1]: 158 nM
Emax [2]: 76%
Ki [3]: 7.94 nM
EC50 [4]: 3160 nM
Ki [5]: > 10000 nM
Ki [6]: 398 nM

Cn1c(CN2CCC(c3cccc(C(F)(F)F)c3)CC2)nc2ccccc21
EC50 [1]: 100 nM
Emax [2]: 94%
Ki [3]: 251 nM
EC50 [4]: 2510 nM
Ki [5]: > 10000 nM
Ki [6]: 126 nM

Cn1c(CN2CCN(c3ccc(Cl)cc3)CC2)nc2ccccc21
EC50 [1]: 794 nM
Ki [3]: 126 nM
EC50 [4]: > 15800 nM
Ki [5]: > 10000 nM
Ki [6]: > 10000 nM

CCCn1c(CN2CCN(c3ncc(C(F)(F)F)cc3Cl)CC2)nc2ccccc21
EC50 [1]: 2510 nM

Cn1c(CN2CCC(c3ccccn3)CC2)nc2ccccc21
EC50 [1]: > 3160 nM
EC50 [4]: > 15800 nM

CCn1c(CN2CCN(c3ncc(C(F)(F)F)cc3Cl)CC2)nc2ccccc21
EC50 [1]: 63.1 nM

Cn1c(CN2CCN(c3ncc(C(F)(F)F)cc3Cl)CC2)nc2cc(C(F)(F)F)ccc21
EC50 [1]: 2000 nM

Cn1c(CN2CCC(c3nsc4ccccc34)CC2)nc2ccccc21
EC50 [1]: 200 nM
Emax [2]: 84%
Ki [3]: 200 nM
EC50 [4]: 2510 nM
Ki [5]: 3980 nM
Ki [6]: 79.4 nM

FC(F)(F)c1cnc(N2CCN(Cc3nc4ccccc4[nH]3)CC2)c(Cl)c1
EC50 [1]: 12600 nM

Cn1c(CN2CCN(c3ncc(Cl)cn3)CC2)nc2ccccc21
EC50 [1]: 126 nM
Activity [7]: inactive
Activity [8]: inactive
Emax [2]: 69%
Ki [3]: 2510 nM
Activity [9]: inactive
Activity [10]: inactive
EC50 [4]: 1260 nM
Activity [11]: inactive
Activity [12]: inactive
Ki [5]: > 10000 nM
Activity [13]: inactive
Activity [14]: inactive
Ki [6]: > 10000 nM
Activity [15]: inactive

Cn1c(CN2CCN(c3ncc(C(F)(F)F)cc3Cl)CC2)nc2ccccc21
EC50 [1]: 79.4 nM
Activity [7]: inactive
Activity [8]: inactive
Emax [2]: 71%
Ki [3]: 631 nM
Activity [9]: inactive
Activity [10]: inactive
EC50 [4]: 2000 nM
Activity [11]: inactive
Activity [12]: inactive
Ki [5]: 5010 nM
Activity [13]: inactive
Activity [14]: inactive
Ki [6]: 5010 nM
Activity [15]: inactive

Clc1cnc(N2CCN(Cc3nc4ccccc4[nH]3)CC2)nc1
EC50 [1]: 12600 nM

Cn1c(CN2CCC(c3ccccc3)CC2)nc2ccccc21
EC50 [1]: 200 nM
Emax [2]: 89%
Ki [3]: 100 nM
EC50 [4]: 6310 nM
Ki [5]: 126 nM
Ki [6]: 25.1 nM

FC(F)(F)c1cnc(N2CCN(Cc3nc4ccccc4n3Cc3ccccc3)CC2)c(Cl)c1
EC50 [1]: 126 nM

Cn1c(CN2CCN(c3ncc(C(F)(F)F)cc3Cl)CC2)nc2ccc(F)cc21
EC50 [1]: 126 nM

CCn1c(CN2CCN(c3ncc(Cl)cn3)CC2)nc2ccccc21
EC50 [1]: 158 nM

Cn1c(CN2CCC(c3ccc(Cl)cc3)CC2)nc2ccccc21
EC50 [1]: 79.4 nM
Emax [2]: 91%
Ki [3]: 63.1 nM
EC50 [4]: 5010 nM
Ki [5]: 316 nM
Ki [6]: 15.8 nM

Cn1c(CN2CCN(c3ncc(C(F)(F)F)cc3Cl)CC2)nc2cc(F)ccc21
EC50 [1]: 200 nM

Clc1cnc(N2CCN(Cc3nc4ccccc4n3Cc3ccccc3)CC2)nc1
EC50 [1]: 126 nM

CCCn1c(CN2CCN(c3ncc(Cl)cn3)CC2)nc2ccccc21
EC50 [1]: 794 nM

Cn1c(CN2CCN(c3ccc(C#N)cc3)CC2)nc2ccccc21
EC50 [1]: > 12600 nM

COCCn1c(CN2CCN(c3ncc(C(F)(F)F)cc3Cl)CC2)nc2ccccc21
EC50 [1]: 158 nM

Cn1c(CN2CCC(c3ccc(C(F)(F)F)cc3)CC2)nc2ccccc21
EC50 [1]: 100 nM
Emax [2]: 110%
Ki [3]: 126 nM
EC50 [4]: 2000 nM
Ki [5]: > 10000 nM
Ki [6]: 251 nM

Cn1c(CN2CCN(c3ncc(C(F)(F)F)cc3Cl)CC2)nc2cc(C#N)ccc21
EC50 [1]: 50.1 nM

COCCn1c(CN2CCN(c3ncc(Cl)cn3)CC2)nc2ccccc21
EC50 [1]: 501 nM

Cn1c(CN2CCN(c3ccccc3C(F)(F)F)CC2)nc2ccccc21
EC50 [1]: 316 nM
Emax [2]: 84%
Ki [3]: 631 nM
EC50 [4]: > 15800 nM

Cn1c(CN2CCN(c3ccccn3)CC2)nc2ccccc21
EC50 [1]: 15800 nM
Emax [2]: 100%

Cn1c(CN2CCC(c3cccc(Cl)c3)CC2)nc2ccccc21
EC50 [1]: 100 nM
Emax [2]: 92%
Ki [3]: 251 nM
EC50 [4]: 3980 nM
Ki [5]: 1580 nM
Ki [6]: 39.8 nM

Cn1c(CN2CCN(c3ccccc3)CC2)nc2ccccc21
EC50 [1]: 5010 nM
Emax [2]: 100%
EC50 [4]: > 15800 nM

Cn1c(CN2CCC(c3ccccc3F)CC2)nc2ccccc21
EC50 [1]: 126 nM
EC50 [7]: > 15800 nM
solubility [16]: 31 µg/mL (≈ 95.9 µM)
EC50 [4]: 3980 nM
EC50 [12]: > 15800 nM
EC50 [13]: > 15800 nM
EC50 [14]: > 15800 nM
Ki [6]: 39.8 nM
EC50 [15]: > 15800 nM

Cn1c(CN2CCN(c3nc4ccccc4s3)CC2)nc2ccccc21
EC50 [1]: 316 nM
Emax [2]: 88%
Ki [3]: 794 nM
EC50 [4]: 2000 nM
Ki [5]: > 10000 nM
Ki [6]: > 10000 nM

Cn1c(CN2CCN(c3ccccc3F)CC2)nc2ccccc21
EC50 [1]: 794 nM
Emax [2]: 64%
EC50 [4]: 6310 nM

COc1ccccc1Oc1ccc(N(Cc2cccnc2)S(=O)(=O)CC(F)(F)F)cc1
pEC50 [17]: 7.364
pEC50 [18]: 6.864

Cn1c(CN2CCN(c3ccc(C(F)(F)F)cc3)CC2)nc2ccccc21
EC50 [1]: 200 nM
Emax [2]: 84%
Ki [3]: 398 nM
EC50 [4]: 6310 nM
Ki [5]: > 10000 nM
Ki [6]: > 10000 nM

Cn1c(CN2CCN(c3ccc(C(F)(F)F)cn3)CC2)nc2ccccc21
EC50 [1]: 501 nM
Emax [2]: 81%
Ki [3]: 1000 nM
EC50 [4]: 6310 nM
Ki [5]: > 10000 nM
Ki [6]: > 10000 nM
